Reference: US20080039337A1, “Method for Detection of Conformational Change of a Protein Immobilized on a Substrate” (FUENCE CO., LTD., priority 2004, published 2008)

Molecular target: T1, Amyloid β (1-42) (Homo sapiens, UniProt P05067)
T1 construct: Amyloid β (1-42); purchased Bachem AG, Bubendorf, Switzerland (printed 'Bachem A G, Budendorf')
Test: Detection of conformational change to β-sheet structure of amyloid β (1-42) film immobilized on a substrate, by fluorescent dye binding
Type: biochemical
Conditions: film immersed into 1 mM ZnCl2 in 10 mM Hepes pH 7.4, 0.15 M NaCl for 10 minutes; dye 1-fluoro-2,5-bis(3-carboxy-4-hyrdoxystyryl)benzene; compared with buffer only and with EDTA after ZnCl2
Procedure: Amyloid β (1-42) (Bachem A G, Budendorf, Switzerland) was dissolved in 0.1% ammonia water at the concentration of 1 mg/mL. This solution was sprayed under dry air using an electrospry device described in WO 2002-511792 or an immobilzing device described in Japanese Patent Publication No. 2003-136005. The solution was permeated through a mask with holes of 400 μm in length and 800 μm in width, and then a film having 1 μm thickness was prepared using an electrospray method (the EDS method), then protein was cross-linked at 30° C. for 5 minutes by glutaraldehyde.
The resulting film was immersed into 10 mM Hepes pH 7.4 buffer solution (hereinafter referred to as “the buffer solution”) containing 0.15 M NaCl for 10 minutes, in the presence or absence of ZnCl2, except that the EDTA sample was only reacted with 1 mM ZnCl2 and then immersed in a buffer solution containing 1 mM EDTA for 10 minutes. After that the film was immersed into a solution of 1-fluoro-2,5-bis(3-carboxy-4-hyrdoxystyryl)benzene (Dojindo Chemical Laboratory Co., Kumamoto) that binds to β-sheet structure, prepared to the final concentration of 0.01% using 50% ethanol solution. Furthermore, the film was immersed into a solution of saturated lithium carbonate, then it was lightly washed by 50% ethanol, then dried and observed under fluorescent microscope. […]

T1 sequence (P05067 672-713): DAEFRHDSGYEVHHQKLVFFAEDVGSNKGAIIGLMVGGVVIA

Compound: [Cl-].[Cl-].[Zn+2] [ZnCl2]
- fluorescent intensity of the film (relative intensity), indicating change of amyloid β to β sheet structure: the highest
